One series deals with A549 cells. The series is described as follows: XTT viability of A549 cells after direct gas exposure in 96-well plate. The format is cell-based. Here is the method: (§1) In vitro systems: One system involves a direct exposure of cancer cells to gNO in 96-well plate. Gaseous NO at 150 ppm-50,000 ppm was delivered at 0.3 LPM for 10 seconds—3 minutes. In another system, cancer cells were exposed to gNO in a box made of acrylic glass. Gaseous NO at 10,000-50,000 ppm was delivered at 0.9 LPM for 10 seconds—15 minutes.
(§2) The exposure of the cancer cells to gNO was done after removing the cell culture medium.
(§3) Immediately after gas exposure, cell culture medium was added, and the cells were incubated at a 37° C. and 5% CO2 incubator over-night. To test cell viability, XTT assay and Annexin V-Propidium Iodide assays were performed, according to known protocols.
A549 cells were prepared in RPMI medium and suspended in four 96-well plates. The wells were exposed to the gas by a tubing that was directed at each well for 10, 60 or 180 seconds. The diameter of the gas tubing used was about 25% of the diameter of each well. Three wells were used for each gas and exposure time. The plates were placed in a 5% CO2, 37° C. incubator for 15-18 hours and the viability of the cells was tested by XTT assay.

Series [1] deals with 4T1 cells. The series is described as follows: XTT viability of 4T1 cells after direct gas exposure in 96-well plate. The format is cell-based, mouse.
From the text: (§4) Tumor celllines: The mouse colon carcinoma cell line, CT26WT, was cloned from CT26, an N-nitroso-N-methylurethane-induced, undifferentiated colon carcinoma cell line. The mouse mammary tumor cell line, 4T1, is a 6-thioguanine resistant cell line. When injected into BALB/c mice, 4T1 spontaneously produces highly metastatic tumors that can metastasize to the lung, liver, lymph nodes and brain while the primary tumor is growing in situ. […] Panc 02.03 is a pancreatic adenocarcinoma epithelial cell line derived in 1995 from a primary tumor removed from the head-of-the-pancreas of […] with pancreatic adenocarcinoma. CT26, 4T1 and Panc 02.03 cell lines were grown in RPMI based media (ATCC 30-2001) supplemented with fetal bovine serum and pen-strep (both from Biological Industries). The LLC1/LU2 cell line was grown in DMEM based media (ATCC 30-2002) supplemented with fetal bovine serum and pen-strep (Biological industries). The B16.F10 cell lines was grown in DMEM based media (ATCC 30-2002) supplemented with fetal bovine serum and pen-strep (Biologicalindustries).
as §1, §2, §3
The effect of continuous gaseous nitric oxide (gNO) at 150 ppm, 4,000 ppm, 10,000 ppm, or 50,000 ppm, compared to air (control), on the survival of 4T1 cancer cell line was tested. 4T1 cells were prepared in RPMI medium and suspended in six 96-well plates. […]
On the technique in general: Formazan colour is commonly taken as a measure of viable cells.

The subject of a further series is Panc02.03 cells. The experiment in a line: XTT viability of Panc02.03 cells after gas exposure in chamber. In kind it is cell-based. As to conditions: 10,000 ppm-25,000 ppm gNO for 1-15 minutes.
From the text: as §4
In vitro systems: One system involves a direct exposure of cancer cells to gNO in 96-well plate. Gaseous NO at 150 ppm-50,000 ppm was delivered at 0.3 LPM for 10 seconds—3 minutes. In another system, cancer cells were exposed to gNO in a box made of acrylic glass. […]

For series [2], the system named is LLC1 cells. The series is described as follows: Annexin V-Propidium Iodide apoptosis-necrosis assay of LLC1 cells. In kind it is cell-based. As to conditions: 20,000 ppm or 50,000 ppm gNO for 3 minutes, overnight incubation. The method, then:
as §3
In an additional set of experiments, the plates were exposed to the gas (at 20,000 ppm or 50,000 ppm) by filling the chamber with gNO for 3 minutes. After exposure, the plates were placed in a 5% CO2, 37° C. incubator for an overnight incubation and the viability of the cells was tested via Annexin V—Propidium Iodide apoptosis-necrosis assay.

In series [3] the test system is 4T1 cells. The experiment in a line: Third inoculation with 4T1 breast cancer cells in a gNO-treated CT26 immunized mouse. The settings on record: mouse treated with 25,000 ppm NO twice 15 minutes; third inoculation 30 days post the second. The format is in vivo. Here is the method: Balb/c mouse was inoculated with 500,000 CT26 cells to the right flank. CT26 tumor was treated with 25,000 ppm NO for 15 minutes at a flow rate of 0.25 LPM. Seven days post gas treatment, this mouse was treated once again using the same protocol. Twelve days post the first NO treatment, this mouse was re-inoculated with 500,000 CT26 cells to the left flank. A third inoculation of cancer cells was performed 30 days post the second cell inoculation, using mouse breast cancer cells, was performed as well and the growth of a third inoculation of breast cancer cells, 4T1 cells. Forty-four days post challenge assay start (second inoculation), this mouse was sacrificed, and his spleen was harvested and preserved in RPMI-based media at 4° c. until processing of it. The spleen was processed into a sterile 35 mm culture dish containing 5 ml of RPMI-based media. Any extra connective tissues or fat was trimmed from the spleen. The flat end of a plunger was used to mince the spleen by crushing the spleen to release the splenocytes. A 70 μm strainer was primed by passing 1 ml of PBS through it and placed on a sterile 50 mL conical tube. The pellet was collected and transferred through the strainer via a 5 mL serological pipette. The strainer was washed with 3 mL of RPMI-based media. Tube will be centrifuged at 300×g for 10 minutes. […]

Series [4] deals with LLC1 cells. The experiment in a line: XTT viability of LLC1 cells after gas exposure in chamber. The format is cell-based. The settings on record: 10,000 ppm-25,000 ppm gNO for 3-15 minutes. Here is the method: as §1, §2, §3
The effect of continuous gaseous nitric oxide (gNO) at 10,000 ppm, 15,000 ppm, 20,000 ppm, or 25,000 ppm, compared to air (control), on the survival of LLC1 cancer cell line was tested. LLC1 cells were prepared in DMEM medium and suspended in 96-well plates. The plates were placed inside an approx. 2 liter exposure chamber. The plates were exposed to the gas by filling the chamber with gNO for 10 seconds, or 1, 3, 9 or 15 minutes. After exposure, the plates were placed in a 5% CO2, 37° C. incubator for an overnight incubation and the viability of the cells was tested by XTT assay.

For the compound `[N]=O` [gNO, nitric oxide], the “viability of A549 cells” value in the series on A549 cells (4000, 10,000, or 50,000 ppm gNO for 10 seconds) is recorded as 50%-84%; in the series with A549 cells (4000, 10,000, or 50,000 ppm gNO for 60 seconds), 65%-96%; in the series with A549 cells (4000, 10,000, or 50,000 ppm gNO for 180 seconds) it was 45%-62%. Besides, the “4T1 cells remain viable” value with 4T1 cells [1] (4,000-10,000 ppm gNO for 1 minute) is given as “About 60%”. Also, the “viability of 4T1 cells” value with 4T1 cells [1] (10,000 or 50,000 ppm gNO for 180 seconds) is listed as 1-3%. Also, the “4T1 cells remained viable” value in the series with 4T1 cells [1] (10,000 ppm or 50,000 ppm gNO for 10 seconds) is recorded as “less than 80%”. For the same compound, the “viability of Panc02.03 cells” value with Panc02.03 cells is on record as “less than 5%”. The “LLC1 cells at late apoptosis” value with LLC1 cells [2] is 80%-90%. For the same compound, in the series with 4T1 cells [3], the “growth of a third inoculation of breast cancer cells (4T1)” value is given as “inhibited”. Besides, the “viability of LLC1 cells” value with LLC1 cells [4] is on record as “less than 5%”.

Values taken from patent publication US20240238417A1, “METHODS OF PRODUCING TUMOR VACCINES AND USES THEREOF” (priority 2021, published 2024).
